# Experimental data published in US20260242419A1, “A CYCLIC PEPTIDE FOR TRAPPING INTERLEUKIN-1 BETA” (Merck Sharp & Dohme LLC, priority 2023, published 2026).
# Starred links: 1 amine or outer side, 2 acyl side, 3 side chain; linkers in the order of their positions; H or OH if unused. Non-standard residues stand in square brackets, D forms with d. Residues, ends and D or L forms follow the SMILES beside them. dPro(4R-(4-pyridylmethyl)) = O=C(O)[C@H]1C[C@@H](Cc2ccncc2)CN1; Trp(βS-Me,4-F) = C[C@@H](c1c[nH]c2cccc(F)c12)[C@H](N)C(=O)O; 3Aminoazetidine3carboxyl = O=C(C1(N[*:1])CN([*:3])C1)[*:2]; Bip(4'-COOH) = N[C@@H](Cc1ccc(-c2ccc(C(=O)O)cc2)cc1)C(=O)O; Ala(1-bicyclo(1.1.1)pentyl) = N[C@@H](CC12CC(C1)C2)C(=O)O; X21 = O=C(O)c1ccc(-c2ccc(C[C@H](N[*:1])C(=O)[*:2])cn2)cc1; dPro(4R-Bzl(4-F)) = O=C(O)[C@H]1C[C@@H](Cc2ccc(F)cc2)CN1; Ala(morpholin-4-yl) = N[C@@H](CN1CCOCC1)C(=O)O; Ala(pyrimidin-5-yl) = N[C@@H](Cc1cncnc1)C(=O)O; Phe(4-COOH) = N[C@@H](Cc1ccc(C(=O)O)cc1)C(=O)O; Pro(cis-4-F) = O=C(O)[C@@H]1C[C@H](F)CN1; 4Pal = N[C@@H](Cc1ccncc1)C(=O)O; d(αMeS) = C[C@@](N)(CO)C(=O)O; αMeS = C[C@](N)(CO)C(=O)O; Dab = NCC[C@H](N)C(=O)O; Aib = CC(C)(N)C(=O)O
# Molecular target: T1, IL-1β (Homo sapiens, UniProt P01584)
# T1 construct: purchased BioLegend 579404
# Test: IL-6 assay in MRC5 cells: inhibition of IL-1β induced IL-6 secretion (AlphaLISA)
# Format: cell-based
# Conditions: not given
# Experimental: Procedure for IL-6 Assay in MRC5 Cells
# The inhibition of IL-1β induced IL-6 secretion was evaluated in MRC5 cells. Recombinant human IL-1β (BioLegend 579404) at 2λ EC80 concentration was prepared in seeding medium. EMEM (ATCC 30-2003) with 0.025% BSA (Sigma A9576), 1×penicillin/streptomycin (Gibco 15070-063), 1×NEAA (Gibco 11140-050), 1×GlutaMax (Gibco 35050-061), and 1×sodium pyruvate (Gibco 11360-070), 20 μL of IL-1β was added to a 384-well collagen-coated plate (Corning 354664) and pre-incubated at ambient temperature for 1 hour with 200 nL of compound dispensed using an ECHO 555 liquid handler. Human lung fibroblast MRC5 cells (ATCC CCL-171) were added at a density of 3000 cells/20 μL per well. The cells were prepared by passaging three times in growth medium, EMEM (ATCC 30-2003) with 10% fetal bovine serum (Gibco 16140-071), 1×penicillin/streptomycin (Gibco 15070-063), 1×NEAA (Gibco 11140-050), 1×GlutaMax (Gibco 35050-061), and 1×sodium pyruvate (Gibco 11360-070) in collagen-coated T175 flasks (Greiner 661950) and harvested in seeding medium after 5 minutes of 0.25% trypsin-EDTA (Gibco 25200-056) digestion. The 384-well collagen-coated plate, containing a final volume of 40 μL, was incubated at 37° C., 5% CO2 overnight. 5 μL of the conditioned medium was transferred to a 384-well AlphaLISA plate (PerkinElmer 6005350) for detection of IL-6 using the human AlphaLISA IL-6 kit (PerkinElmer AL223F) as per the manufacturer's protocol. 20 μL of the acceptor bead/biotinylated antibody mix was added to the 384-well AlphaLISA plate and incubated for 1 hour at ambient temperature. The donor bead mix was protected from light and 25 μL was added to the plate and incubated for 30 minutes at ambient temperature. The AlphaLISA plate was read on an EnVision multimode plate reader (Perkin Elmer model 2104) using the AlphaScreen setting (laser exc at 680 nm and emis at […]). Dose response curves and IC50 values were analyzed using a 4-parameter logistic equation in Spotfire software (Tibco, Palo Alto, CA).
# T1 sequence (P01584 117-269): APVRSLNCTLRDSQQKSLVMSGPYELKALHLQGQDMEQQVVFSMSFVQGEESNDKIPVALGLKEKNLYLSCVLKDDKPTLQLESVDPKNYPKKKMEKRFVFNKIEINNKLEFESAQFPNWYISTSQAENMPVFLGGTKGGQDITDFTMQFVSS
row,Compound,IC50 [nM]
1,"C[C@@H](c1c[nH]c2cccc(F)c12)[C@@H]1NC(=O)[C@@H]2C[C@H](F)CN2C(=O)CNC(=O)[C@H](Cc2ccc(C(=O)O)cc2)NC(=O)[C@H](Cc2ccncc2)NC(=O)[C@H](Cc2ccc(-c3ccc(C(=O)O)cc3)cc2)NC(=O)[C@H]2C[C@@H](Cc3ccc(F)cc3)CN2C(=O)CNC(=O)[C@H](CCN)NC(=O)[C@H](CCC(N)=O)NC(=O)[C@H](Cc2cncnc2)NC(=O)C(C)(C)NC(=O)[C@H](Cc2c[nH]c3ccccc23)NC(=O)[C@H](CCC(=O)O)NC(=O)[C@](C)(CO)NC1=O [Example 22] (cyclo([4Pal][Phe(4-COOH)]G[Pro(cis-4-F)][Trp(βS-Me,4-F)][αMeS]EW[Aib][Ala(pyrimidin-5-yl)]Q[Dab]G[dPro(4R-Bzl(4-F))][Bip(4'-COOH)]))",0.027

# Same assay, conditions: inhibition of IL-1β induced IL-6 secretion in MRC5 cells; read-out: MRC5 IC50
row,IC50 [nM],Compound
1,0.022,"C[C@@H](c1c[nH]c2cccc(F)c12)[C@@H]1NC(=O)[C@@H]2C[C@H](F)CN2C(=O)CNC(=O)[C@H](Cc2ccc(C(=O)O)cc2)NC(=O)[C@H](CC23CC(C2)C3)NC(=O)[C@H](Cc2ccc(-c3ccc(C(=O)O)cc3)cc2)NC(=O)[C@H]2C[C@@H](Cc3ccc(F)cc3)CN2C(=O)CNC(=O)[C@H](CCN)NC(=O)[C@H](CCC(N)=O)NC(=O)[C@H](Cc2cncnc2)NC(=O)C(C)(C)NC(=O)[C@H](Cc2c[nH]c3ccccc23)NC(=O)[C@H](CCC(=O)O)NC(=O)C(C)(C)NC1=O [Example 13] (cyclo([Bip(4'-COOH)][Ala(1-bicyclo(1.1.1)pentyl)][Phe(4-COOH)]G[Pro(cis-4-F)][Trp(βS-Me,4-F)][Aib]EW[Aib][Ala(pyrimidin-5-yl)]Q[Dab]G[dPro(4R-Bzl(4-F))]))"
2,0.035,"C[C@@H](c1c[nH]c2cccc(F)c12)[C@@H]1NC(=O)[C@@H]2C[C@H](F)CN2C(=O)CNC(=O)[C@H](Cc2ccc(C(=O)O)cc2)NC(=O)[C@H](Cc2ccncc2)NC(=O)[C@H](Cc2ccc(-c3ccc(C(=O)O)cc3)cc2)NC(=O)[C@H]2C[C@@H](Cc3ccncc3)CN2C(=O)CNC(=O)[C@H](CCN)NC(=O)[C@H](CCC(N)=O)NC(=O)[C@H](Cc2cncnc2)NC(=O)C(C)(C)NC(=O)[C@H](Cc2c[nH]c3ccccc23)NC(=O)[C@H](CCC(=O)O)NC(=O)C(C)(C)NC1=O [Example 14] (cyclo([Bip(4'-COOH)][4Pal][Phe(4-COOH)]G[Pro(cis-4-F)][Trp(βS-Me,4-F)][Aib]EW[Aib][Ala(pyrimidin-5-yl)]Q[Dab]G[dPro(4R-(4-pyridylmethyl))]))"
3,0.035,"C[C@@H](c1c[nH]c2cccc(F)c12)[C@@H]1NC(=O)[C@@H]2C[C@H](F)CN2C(=O)CNC(=O)[C@H](Cc2ccc(C(=O)O)cc2)NC(=O)[C@H](Cc2ccncc2)NC(=O)[C@H](Cc2ccc(-c3ccc(C(=O)O)cc3)cc2)NC(=O)[C@H]2C[C@@H](Cc3ccncc3)CN2C(=O)CNC(=O)[C@H](CCN)NC(=O)[C@H](CCC(N)=O)NC(=O)[C@H](Cc2ccncc2)NC(=O)C(C)(C)NC(=O)[C@H](Cc2c[nH]c3ccccc23)NC(=O)[C@H](CCC(=O)O)NC(=O)C(C)(C)NC1=O [Example 15] (cyclo([Bip(4'-COOH)][4Pal][Phe(4-COOH)]G[Pro(cis-4-F)][Trp(βS-Me,4-F)][Aib]EW[Aib][4Pal]Q[Dab]G[dPro(4R-(4-pyridylmethyl))]))"
4,0.029,"C[C@@H](c1c[nH]c2cccc(F)c12)[C@@H]1NC(=O)[C@@H]2C[C@H](F)CN2C(=O)CNC(=O)[C@H](Cc2ccc(C(=O)O)cc2)NC(=O)[C@H](Cc2ccncc2)NC(=O)[C@H](Cc2ccc(-c3ccc(C(=O)O)cc3)cc2)NC(=O)[C@H]2C[C@@H](Cc3ccc(F)cc3)CN2C(=O)CNC(=O)[C@H](CCN)NC(=O)[C@H](CCC(N)=O)NC(=O)[C@H](Cc2cncnc2)NC(=O)C(C)(C)NC(=O)[C@H](Cc2c[nH]c3ccccc23)NC(=O)[C@H](CC(=O)O)NC(=O)C(C)(C)NC1=O [Example 17] (cyclo([Bip(4'-COOH)][4Pal][Phe(4-COOH)]G[Pro(cis-4-F)][Trp(βS-Me,4-F)][Aib]DW[Aib][Ala(pyrimidin-5-yl)]Q[Dab]G[dPro(4R-Bzl(4-F))]))"
5,0.027,"C[C@@H](c1c[nH]c2cccc(F)c12)[C@@H]1NC(=O)[C@@H]2C[C@H](F)CN2C(=O)CNC(=O)[C@H](Cc2ccc(C(=O)O)cc2)NC(=O)[C@H](Cc2ccncc2)NC(=O)[C@H](Cc2ccc(-c3ccc(C(=O)O)cc3)cc2)NC(=O)[C@H]2C[C@@H](Cc3ccc(F)cc3)CN2C(=O)CNC(=O)[C@H](CCN)NC(=O)[C@H](CCC(N)=O)NC(=O)[C@H](Cc2cncnc2)NC(=O)[C@](C)(CO)NC(=O)[C@H](Cc2c[nH]c3ccccc23)NC(=O)[C@H](CCC(=O)O)NC(=O)C(C)(C)NC1=O [Example 18] (cyclo([Bip(4'-COOH)][4Pal][Phe(4-COOH)]G[Pro(cis-4-F)][Trp(βS-Me,4-F)][Aib]EW[αMeS][Ala(pyrimidin-5-yl)]Q[Dab]G[dPro(4R-Bzl(4-F))]))"
6,0.021,"C[C@@H](c1c[nH]c2cccc(F)c12)[C@@H]1NC(=O)[C@@H]2C[C@H](F)CN2C(=O)CNC(=O)[C@H](Cc2ccc(C(=O)O)cc2)NC(=O)[C@H](Cc2ccncc2)NC(=O)[C@H](Cc2ccc(-c3ccc(C(=O)O)cc3)cc2)NC(=O)[C@H]2C[C@@H](Cc3ccc(F)cc3)CN2C(=O)CNC(=O)[C@H](CCN)NC(=O)[C@H](CCC(N)=O)NC(=O)[C@H](Cc2cncnc2)NC(=O)C(C)(C)NC(=O)[C@H](Cc2c[nH]c3ccccc23)NC(=O)[C@H](CCC(=O)O)NC(=O)[C@@](C)(CO)NC1=O [Example 19] (cyclo([Bip(4'-COOH)][4Pal][Phe(4-COOH)]G[Pro(cis-4-F)][Trp(βS-Me,4-F)][d(αMeS)]EW[Aib][Ala(pyrimidin-5-yl)]Q[Dab]G[dPro(4R-Bzl(4-F))]))"
7,0.04,"C[C@@H](c1c[nH]c2cccc(F)c12)[C@@H]1NC(=O)[C@@H]2C[C@H](F)CN2C(=O)CNC(=O)[C@H](Cc2ccc(C(=O)O)cc2)NC(=O)[C@H](Cc2ccncc2)NC(=O)[C@H](Cc2ccc(-c3ccc(C(=O)O)cc3)cc2)NC(=O)[C@H]2C[C@@H](Cc3ccc(F)cc3)CN2C(=O)CNC(=O)[C@H](CCN)NC(=O)[C@H](CCC(N)=O)NC(=O)[C@H](Cc2cncnc2)NC(=O)C2(CNC2)NC(=O)[C@H](Cc2c[nH]c3ccccc23)NC(=O)[C@H](CCC(=O)O)NC(=O)C(C)(C)NC1=O [Example 21] (cyclo([Bip(4'-COOH)][4Pal][Phe(4-COOH)]G[Pro(cis-4-F)][Trp(βS-Me,4-F)][Aib]EW[3Aminoazetidine3carboxyl][Ala(pyrimidin-5-yl)]Q[Dab]G[dPro(4R-Bzl(4-F))]))"
8,0.018,"C[C@@H](c1c[nH]c2cccc(F)c12)[C@@H]1NC(=O)[C@@H]2C[C@H](F)CN2C(=O)CNC(=O)[C@H](Cc2ccc(C(=O)O)cc2)NC(=O)[C@H](Cc2ccncc2)NC(=O)[C@H](Cc2ccc(-c3ccc(C(=O)O)cc3)cc2)NC(=O)[C@H]2C[C@@H](Cc3ccc(F)cc3)CN2C(=O)CNC(=O)[C@H](CCN)NC(=O)[C@H](CCC(N)=O)NC(=O)[C@H](Cc2cncnc2)NC(=O)[C@@](C)(CO)NC(=O)[C@H](Cc2c[nH]c3ccccc23)NC(=O)[C@H](CCC(=O)O)NC(=O)C(C)(C)NC1=O [Example 23] (cyclo([Bip(4'-COOH)][4Pal][Phe(4-COOH)]G[Pro(cis-4-F)][Trp(βS-Me,4-F)][Aib]EW[d(αMeS)][Ala(pyrimidin-5-yl)]Q[Dab]G[dPro(4R-Bzl(4-F))]))"
9,0.049,"C[C@@H](c1c[nH]c2cccc(F)c12)[C@@H]1NC(=O)[C@@H]2C[C@H](F)CN2C(=O)CNC(=O)[C@H](Cc2ccc(C(=O)O)cc2)NC(=O)[C@H](Cc2ccncc2)NC(=O)[C@H](Cc2ccc(-c3ccc(C(=O)O)cc3)cc2)NC(=O)[C@H]2C[C@@H](Cc3ccc(F)cc3)CN2C(=O)CNC(=O)[C@H](CN2CCOCC2)NC(=O)[C@H](CCC(N)=O)NC(=O)[C@H](Cc2cncnc2)NC(=O)C(C)(C)NC(=O)[C@H](Cc2c[nH]c3ccccc23)NC(=O)[C@H](CCC(=O)O)NC(=O)C(C)(C)NC1=O [Example 24] (cyclo([Bip(4'-COOH)][4Pal][Phe(4-COOH)]G[Pro(cis-4-F)][Trp(βS-Me,4-F)][Aib]EW[Aib][Ala(pyrimidin-5-yl)]Q[Ala(morpholin-4-yl)]G[dPro(4R-Bzl(4-F))]))"
10,0.035,"C[C@@H](c1c[nH]c2cccc(F)c12)[C@@H]1NC(=O)[C@@H]2C[C@H](F)CN2C(=O)CNC(=O)[C@H](Cc2ccc(C(=O)O)cc2)NC(=O)[C@H](Cc2ccncc2)NC(=O)[C@H](Cc2ccc(-c3ccc(C(=O)O)cc3)nc2)NC(=O)[C@H]2C[C@@H](Cc3ccc(F)cc3)CN2C(=O)CNC(=O)[C@H](CCN)NC(=O)[C@H](CCC(N)=O)NC(=O)[C@H](Cc2cncnc2)NC(=O)C(C)(C)NC(=O)[C@H](Cc2c[nH]c3ccccc23)NC(=O)[C@H](CCC(=O)O)NC(=O)C(C)(C)NC1=O [Example 26] (cyclo([X21][4Pal][Phe(4-COOH)]G[Pro(cis-4-F)][Trp(βS-Me,4-F)][Aib]EW[Aib][Ala(pyrimidin-5-yl)]Q[Dab]G[dPro(4R-Bzl(4-F))]))"
